Assay results as given in ChEMBL document CHEMBL2169826, “Pharmacokinetic benefits of 3,4-dimethoxy substitution of a phenyl ring and design of isosteres yielding orally available cathepsin K inhibitors” (J Med Chem, 2012).
pIC50: −log10 of the molar value. ≈ marks a conversion by molar mass, not a printed value.

Columns and labels:
[1] = Metabolic stability of the compound in human liver microsomes assessed as compound turnover after 120 mins
[2] = target: Cathepsin S (Homo sapiens, UniProt P25774); assay: Inhibition of human recombinant cathepsin-S using Z-Val-Val-Arg-AMC as substrate preincubated for 15 mins measured after 1 hr by QFRET assay
Sequence of Cathepsin S (P25774 whole entry): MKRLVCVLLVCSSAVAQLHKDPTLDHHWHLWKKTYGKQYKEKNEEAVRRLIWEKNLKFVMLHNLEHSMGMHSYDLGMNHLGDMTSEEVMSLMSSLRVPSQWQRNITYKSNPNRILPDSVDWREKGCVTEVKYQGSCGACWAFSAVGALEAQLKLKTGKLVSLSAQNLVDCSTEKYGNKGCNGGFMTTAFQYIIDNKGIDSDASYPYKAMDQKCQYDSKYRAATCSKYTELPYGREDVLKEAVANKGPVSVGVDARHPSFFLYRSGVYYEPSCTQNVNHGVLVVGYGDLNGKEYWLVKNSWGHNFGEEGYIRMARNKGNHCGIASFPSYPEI

[3] = target: Cathepsin B (Homo sapiens, UniProt P07858); assay: Inhibition of human recombinant cathepsin-B using Z-Arg-Arg-AMC as substrate preincubated for 15 mins measured after 1 hr by QFRET assay
[4] = target: T1, Cathepsin K (Homo sapiens, UniProt P43235); assay: Inhibition of human recombinant cathepsin-k using Z-Phe-Arg-AMC as substrate preincubated for 15 mins measured after 1 hr by QFRET assay
T1 sequence (P43235 whole entry): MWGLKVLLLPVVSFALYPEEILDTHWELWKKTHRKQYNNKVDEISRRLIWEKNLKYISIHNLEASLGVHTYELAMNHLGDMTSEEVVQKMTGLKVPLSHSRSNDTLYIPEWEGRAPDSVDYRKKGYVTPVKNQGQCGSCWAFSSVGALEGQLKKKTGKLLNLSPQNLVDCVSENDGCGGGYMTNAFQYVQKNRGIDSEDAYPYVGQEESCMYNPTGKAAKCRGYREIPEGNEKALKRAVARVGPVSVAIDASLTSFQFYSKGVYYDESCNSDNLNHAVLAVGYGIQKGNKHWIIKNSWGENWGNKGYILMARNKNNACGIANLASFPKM

[5] = target: Procathepsin L (Homo sapiens, UniProt P07711); assay: Inhibition of human recombinant cathepsin-L using Z-Phe-Arg-AMC as substrate preincubated for 15 mins measured after 1 hr by QFRET assay
Sequence of Procathepsin L (P07711 whole entry): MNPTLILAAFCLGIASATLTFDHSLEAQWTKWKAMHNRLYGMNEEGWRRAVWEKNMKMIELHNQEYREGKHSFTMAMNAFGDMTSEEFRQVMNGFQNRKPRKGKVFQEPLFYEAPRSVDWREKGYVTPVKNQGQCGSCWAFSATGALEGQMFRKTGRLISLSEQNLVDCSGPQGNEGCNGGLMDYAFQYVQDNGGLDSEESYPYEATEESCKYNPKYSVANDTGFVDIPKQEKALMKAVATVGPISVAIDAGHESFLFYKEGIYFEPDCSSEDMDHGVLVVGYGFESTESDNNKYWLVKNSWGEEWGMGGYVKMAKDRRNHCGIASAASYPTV

[6] = Metabolic stability of the compound in rat liver microsomes assessed as compound turnover after 120 mins
[7] = physchem; settings: buffer, pH 7.4
[8] = in vivo; settings: Alderley Park Han Wistar, rat, plasma, iv, 2 mg/kg
[9] = in vitro; settings: rat, hepatocytes
[10] = Percentage unbound in rat plasma; format: ADME, cell-free
[11] = Oral bioavailability in Alderley Park Han Wistar rat at 2 mg/kg; format: ADME, organism-based; settings: in vivo
[12] = in vitro; settings: human, hepatocytes
[13] = Aqueous solubility of the compound in at pH 7.4; settings: buffer
[14] = Volume of distribution at steady state in Alderley Park Han Wistar rat at 2 mg/kg, iv and 2 mg/kg, po; format: ADME, organism-based; settings: in vivo, read-out: Vdss
[15] = Percentage unbound in human plasma; format: ADME, cell-free
[16] = Inhibition of osteoclastogenesis in human bone marrow-derived stem cells assessed as reduction of pit formation by measuring TRACP5b activity after 7 days by bone TRAP assay; format: functional; settings: 168 h
[17] = organism: Homo sapiens; assay: Selectivity ratio of IC50 for human recombinant cathepsin-K to IC50 for human recombinant cathepsin-B
[18] = target: Cytochrome P450 3A4 (Homo sapiens, UniProt P08684); assay: Inhibition of CYP3A4; format: ADME
Sequence of Cytochrome P450 3A4 (P08684 whole entry): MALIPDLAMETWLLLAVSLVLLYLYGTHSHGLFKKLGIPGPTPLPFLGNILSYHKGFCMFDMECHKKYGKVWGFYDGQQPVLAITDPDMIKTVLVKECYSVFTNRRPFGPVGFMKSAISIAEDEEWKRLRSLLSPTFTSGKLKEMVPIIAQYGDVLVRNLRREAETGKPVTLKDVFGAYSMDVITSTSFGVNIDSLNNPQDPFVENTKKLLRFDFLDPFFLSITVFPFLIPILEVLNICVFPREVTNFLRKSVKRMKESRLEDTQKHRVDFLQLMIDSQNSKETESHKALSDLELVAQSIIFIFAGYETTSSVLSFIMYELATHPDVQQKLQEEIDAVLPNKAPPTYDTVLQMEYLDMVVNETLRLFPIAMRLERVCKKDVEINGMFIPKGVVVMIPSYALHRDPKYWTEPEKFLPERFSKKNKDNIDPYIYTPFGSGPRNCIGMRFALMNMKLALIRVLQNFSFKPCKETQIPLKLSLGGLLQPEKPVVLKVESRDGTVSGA

SMILES | microsomal CLint at 2 h [1] | pIC50 [2] | pIC50 [3] | pIC50 [4] | pIC50 [5] | microsomal CLint at 2 h [6] | logD [7] | clearance [8] | hepatocyte CLint [9] | fraction unbound [10] | bioavailability [11] | hepatocyte CLint [12] | solubility [13] | Vd [14] | fraction unbound [15] | pIC50 [16] | Ratio IC50 [17] | INH [18]
CC1(C)CN(c2ccc(S(C)(=O)=O)cc2)CCN1C(=O)[C@@H]1CCCC[C@H]1C(=O)NC1(C#N)CC1 | < 2 µL/min/mg | 5.43 | 5.45 | 7.35 | < 5.00 | 4.9 µL/min/mg | – | – | – | – | – | – | – | – | – | – | – | –
C[C@H]1CN(c2ccc(S(C)(=O)=O)cc2)CCN1C(=O)[C@@H]1CCCC[C@H]1C(=O)NC1(C#N)CC1 | < 2 µL/min/mg | 5.82 | 5.46 | 7.23 | < 5.00 | < 2 µL/min/mg | – | – | – | – | – | – | – | – | – | – | – | –
Cc1nn(C)c2cc(N3CCN(C(=O)[C@@H]4CCCC[C@H]4C(=O)NC4(C#N)CC4)[C@H](C)C3)ccc12 | 8.8 µL/min/mg | 5.90 | 6.12 | 8.10 | < 5.00 | 15 µL/min/mg | 2.7 | 19 mL/min/kg | 4.6 µL/min/1e6 cells | 0.3 | 87% | 4.7 µL/min/1e6 cells | > 1100 µM | 2.5 L/kg | 0.28 | – | – | –
N#CCNC(=O)[C@@H]1CCCC[C@H]1C(=O)N1CCN(c2ccc(F)cc2)CC1 | < 2.9 µL/min/mg | 5.77 | 6.50 | 7.64 | < 5.00 | 31 µL/min/mg | 1.9 | – | – | – | – | – | > 3700 µM | – | 0.39 | – | – | –
N#CCNC(=O)[C@@H]1CCCC[C@H]1C(=O)N1CCN(c2ccc(C#N)cc2)CC1 | – | 5.59 | – | 7.60 | < 5.00 | – | 1.8 | – | – | – | – | – | – | – | 0.53 | – | – | –
C[C@@H]1CN(c2ccc(S(C)(=O)=O)cc2)C[C@H](C)N1C(=O)[C@@H]1CCCC[C@H]1C(=O)NC1(C#N)CC1 | < 2 µL/min/mg | < 4.93 | 4.60 | 6.68 | < 5.00 | < 2 µL/min/mg | – | – | – | – | – | – | – | – | – | – | – | –
Cc1nn(C)c2ccc(N3CCN(C(=O)[C@@H]4CCCC[C@H]4C(=O)NC4(C#N)CC4)[C@H](C)C3)cc12 | – | 5.91 | 6.01 | 8.05 | < 5.00 | – | 2.8 | – | – | 0.27 | 64% | – | > 1400 µM | 2.5 L/kg | 0.25 | – | – | –
COc1ccc(N2CCN(C(=O)[C@@H]3CCCC[C@H]3C(=O)NC3(C#N)CC3)CC2)cc1 | < 2 µL/min/mg | – | 5.84 | 7.85 | < 5.00 | 48 µL/min/mg | 1.7 | > 73 mL/min/kg | 42 µL/min/1e6 cells | 0.25 | 3.5% | – | > 2000 µM | 1.1 L/kg | 0.46 | – | – | –
COc1cccc(N2CCN(C(=O)[C@@H]3CCCC[C@H]3C(=O)NCC#N)CC2)c1 | 5.6 µL/min/mg | – | – | 8.10 | < 5.00 | 149 µL/min/mg | – | – | – | – | – | – | – | – | – | – | – | –
COc1ccc(N2CCN(C(=O)[C@@H]3CCCC[C@H]3C(=O)NCC#N)CC2)cc1 | 7.1 µL/min/mg | 5.98 | 6.40 | 8.22 | < 5.00 | 77 µL/min/mg | 1.6 | – | – | – | – | – | 390 µM (≈ 150 µg/mL) | – | > 0.5 | – | – | –
C[C@@H]1CN(c2ccccc2)CCN1C(=O)[C@@H]1CCCC[C@H]1C(=O)NCC#N | 16 µL/min/mg | 5.91 | 6.34 | 8.22 | < 5.00 | > 347 µL/min/mg | – | – | – | – | – | – | – | – | – | – | – | –
CS(=O)(=O)c1ccc(N2CCN(C(=O)[C@@H]3CCCC[C@H]3C(=O)NCC#N)CC2)cc1 | < 2 µL/min/mg | 5.89 | 5.93 | 7.96 | < 5.00 | < 5.3 µL/min/mg | 0.67 | – | – | – | – | – | 280 µM (≈ 121 µg/mL) | – | > 0.5 | – | – | –
C[C@@H]1CN(c2ccc3c(c2)OCO3)CCN1C(=O)[C@@H]1CCCC[C@H]1C(=O)NC1(C#N)CC1 | 8.8 µL/min/mg | 5.94 | 6.19 | 8.05 | < 5.00 | 83 µL/min/mg | – | – | – | – | – | – | – | – | – | – | – | –
COc1cccc2c3c([nH]c12)CCN(C(=O)[C@@H]1CCCC[C@H]1C(=O)NC1(C#N)CC1)C3 | – | – | – | – | – | – | – | – | – | – | – | – | – | – | – | 7.49 | – | –
C[C@@H]1CN(c2ccccc2)CCN1C(=O)[C@@H]1CCCC[C@H]1C(=O)NC1(C#N)CC1 | 20 µL/min/mg | 5.89 | 6.19 | 7.96 | < 5.00 | > 347 µL/min/mg | 2.4 | – | – | – | – | – | – | – | – | – | – | –
COc1ccc(N2CCN(C(=O)[C@@H]3CCCC[C@H]3C(=O)NCC#N)CC2)cc1OC | 2.2 µL/min/mg | 5.96 | 5.90 | 8.22 | < 5.00 | 6.8 µL/min/mg | – | – | – | – | – | – | – | – | – | – | 211 | –
CCCN1CCN(c2ccc(C(=O)NC3(C(=O)NCC#N)CCCCC3)cc2)CC1 [BALICATIB] | – | – | – | – | – | – | – | – | – | – | – | – | – | – | – | 7.58 | – | –
CC(C)(F)C[C@H](N[C@@H](c1ccc(-c2ccc(S(C)(=O)=O)cc2)cc1)C(F)(F)F)C(=O)NC1(C#N)CC1 [ODANACATIB] | – | – | – | – | – | – | – | – | – | – | – | – | – | – | – | 7.00 | – | –
Cc1ccc(N2CCN(C(=O)[C@@H]3CCCC[C@H]3C(=O)NCC#N)CC2)cc1 | – | – | 6.24 | 7.96 | < 5.00 | – | – | – | – | – | – | – | – | – | – | – | – | –
COc1ccc(N2CCN(C(=O)[C@@H]3CCCC[C@H]3C(=O)NC3(C#N)CC3)[C@H](C)C2)nc1OC | 4.2 µL/min/mg | 5.96 | 5.77 | 8.30 | < 5.00 | 13 µL/min/mg | 2.3 | 15 mL/min/kg | < 2 µL/min/1e6 cells | 0.41 | 55% | – | > 1700 µM | 0.7 L/kg | 0.24 | – | – | –
CS(=O)(=O)c1ccc(N2CCN(C(=O)[C@@H]3CCCC[C@H]3C(=O)NC3(C#N)CC3)CC2)cc1 | < 2 µL/min/mg | 5.67 | 5.62 | 7.74 | < 5.00 | < 2.2 µL/min/mg | – | 22 mL/min/kg | – | – | 16% | – | 2500 µM (≈ 1150 µg/mL) | – | > 0.5 | – | – | –
Cc1nnc(C)c2cc(N3CCN(C(=O)[C@@H]4CCCC[C@H]4C(=O)NC4(C#N)CC4)[C@H](C)C3)ccc12 | – | 5.76 | 5.53 | 7.77 | < 5.00 | – | 1.9 | – | – | 0.62 | 1.4% | – | – | 4.1 L/kg | 0.49 | – | – | –
COc1cc(N2CCN(C(=O)[C@@H]3CCCC[C@H]3C(=O)NC3(C#N)CC3)[C@H](C)C2)ccc1C1CC1 | 9 µL/min/mg | 5.86 | 5.94 | 8.52 | < 5.00 | 33 µL/min/mg | 3.5 | 39 mL/min/kg | 13 µL/min/1e6 cells | 0.072 | 57% | 25 µL/min/1e6 cells | 200 µM (≈ 92.9 µg/mL) | 2.8 L/kg | 0.081 | – | – | 1.6 µM
C[C@@H]1CN(c2ccc(S(C)(=O)=O)cc2)CCN1C(=O)[C@@H]1CCCC[C@H]1C(=O)NC1(C#N)CC1 | 9.4 µL/min/mg | 6.26 | 6.01 | 7.92 | < 5.00 | < 2 µL/min/mg | – | – | – | – | – | – | – | – | – | – | – | –
N#CC1(NC(=O)[C@@H]2CCCC[C@H]2C(=O)N2CCN(c3ccccc3)CC2)CC1 | 6.9 µL/min/mg | 5.65 | 5.84 | 7.82 | < 5.00 | 107 µL/min/mg | – | 19 mL/min/kg | 36 µL/min/1e6 cells | 0.28 | 0.2% | – | – | 1.1 L/kg | > 0.28 | – | – | –
Cc1noc2cc(N3CCN(C(=O)[C@@H]4CCCC[C@H]4C(=O)NC4(C#N)CC4)[C@H](C)C3)ccc12 | 9.3 µL/min/mg | 6.09 | 6.22 | 7.80 | < 5.00 | – | 2.7 | 29 mL/min/kg | 9.4 µL/min/1e6 cells | 0.14 | 21% | 30 µL/min/1e6 cells | 600 µM (≈ 270 µg/mL) | 2.1 L/kg | 0.2 | – | – | –
CC1CN(c2ccc(S(C)(=O)=O)cc2)C(C)CN1C(=O)[C@@H]1CCCC[C@H]1C(=O)NC1(C#N)CC1 (stereo partly drawn) | < 2 µL/min/mg | < 5.13 | 4.40 | 6.51 | < 5.00 | 4.3 µL/min/mg | – | – | – | – | – | – | – | – | – | – | – | –
N#CCNC(=O)[C@@H]1CCCC[C@H]1C(=O)N1CCN(c2ccccc2)CC1 | – | – | – | – | < 5.00 | – | – | – | – | – | – | – | – | – | > 0.5 | – | – | –
